Laboratory results published in US9796711B2, “Substituted pyrazolo[3,4-b]pyridin-6-carboxylic acids and method of use” (AbbVie S.àr.l., priority 2015, dated 2017).

Biological target: T1, ΔF508-CFTR (Homo sapiens, UniProt P13569, DEL508-508)
T1 construct: host or cells: CFBE41o-, doxycycline-inducible
Assay: CFTR cell surface levels using HRP-tagged ΔF508-CFTR expressing CFBE cells, in the presence of a co-corrector
Assay type: cell-based
Settings: HRP-tagged ΔF508-CFTR expressing CFBE cells, in the presence of 3 μM co-corrector; for EC50: read-out: EC50
Source text: Measuring CFTR Cell Surface Levels Using HRP-Tagged AF508-CFTR Expressing CFBE Cells
The HRP-tagged AF508-CFTR cell assay measures the expression of CFTR-ΔF508 at the plasma membrane. CFTR-ΔF508 has a folding defect leading to absence of protein at the plasma membrane. This assay is used to evaluate the capacity of compounds to increase the expression of CFTR-ΔF508 at the plasma membrane. The CFTR-ΔF508 is tagged with HRP (horse radish peroxidase enzyme) within the ECL4 (Extracellular loop 4) of CFTR (Phuan, P.-W. et al. Synergy-based small-molecule screen using a human lung epithelial cell line yields AF508-CFTR correctors that augment VX-809 maximal efficacy. Mol. Pharmacol. 86, 42-51 (2014)). When HRP-tagged AF508-CFTR is present at the plasma membrane, the HRP enzyme activity can be measured. The amount of CFTR-ΔF508 that can be rescued to the plasma membrane is correlated with the amount of functional enzyme that can be measured.
There are several ways to measure the capacity of compounds to rescue CFTR-ΔF508 to the plasma membrane; either compounds are evaluated on their own and the impact on plasma membrane levels is measured or compounds are evaluated in combination with a co-corrector, i.e. a compound that rescues CFTR-ΔF508 to the plasma membrane but rescue can be enhanced by addition of compounds due to a complementary mode of action.
Activity of Compounds in Combination with Co-Corrector:
For this purpose doxycycline-inducible AF508-CFTR-HRP expressing CFBE4lo-cells (obtained from Gergely Lukacs, McGill University) were maintained in MEM (Minimum Essential Medium, Gibco; 31095) supplemented with 10% fetal bovine serum (Hyclone; SV30160.03) under puromycin (3 μg/mL) and G418 selection (0.2 mg/mL). For compound testing, cells were seeded at 4000 cells/well in white 384-well plates (Greiner; 781080) in 50 μL of medium containing 0.5 μg/mL doxycycline and incubated for 68 hours at 37° C., 5% CO2. On day four, 10 μL of test compounds diluted in PBS (phosphate buffered saline) were added to the plates at a final DMSO concentration of 0.1%. In order to measure compound synergy with a co-corrector, 3 μM co-corrector (3-[(2R,4R)-4-({[1-(2,2-difluoro-1,3-benzodioxol-5-yl)cyclopropyl]carbonyl}amino)-7-methoxy-3,4-dihydro-2H-chromen-2-yl]benzoic acid) was added along with test compounds. All compound plates contained negative controls (DMSO) and positive controls (3 μM co-corrector). Cell plates were incubated at 33° C., 5% CO2 for 20 hours. On day five, the cells were washed five times with phosphate-buffered saline, and HRP activity was assayed by the addition of 50 μL/well of HRP substrate (SuperSignal™ West Pico Chemiluminescent Substrate, Thermo Scientific; 34080). After incubation for 15 minutes in the dark, the chemiluminescence was measured using a plate reader (EnVision®, Perkin Elmer). Raw data were normalized to percentage activity values using the equation: 100×(Sample−Negative control)/(Positive control−Negative Control).

T1 sequence (P13569 with tags, fused parts or gaps DEL508-508): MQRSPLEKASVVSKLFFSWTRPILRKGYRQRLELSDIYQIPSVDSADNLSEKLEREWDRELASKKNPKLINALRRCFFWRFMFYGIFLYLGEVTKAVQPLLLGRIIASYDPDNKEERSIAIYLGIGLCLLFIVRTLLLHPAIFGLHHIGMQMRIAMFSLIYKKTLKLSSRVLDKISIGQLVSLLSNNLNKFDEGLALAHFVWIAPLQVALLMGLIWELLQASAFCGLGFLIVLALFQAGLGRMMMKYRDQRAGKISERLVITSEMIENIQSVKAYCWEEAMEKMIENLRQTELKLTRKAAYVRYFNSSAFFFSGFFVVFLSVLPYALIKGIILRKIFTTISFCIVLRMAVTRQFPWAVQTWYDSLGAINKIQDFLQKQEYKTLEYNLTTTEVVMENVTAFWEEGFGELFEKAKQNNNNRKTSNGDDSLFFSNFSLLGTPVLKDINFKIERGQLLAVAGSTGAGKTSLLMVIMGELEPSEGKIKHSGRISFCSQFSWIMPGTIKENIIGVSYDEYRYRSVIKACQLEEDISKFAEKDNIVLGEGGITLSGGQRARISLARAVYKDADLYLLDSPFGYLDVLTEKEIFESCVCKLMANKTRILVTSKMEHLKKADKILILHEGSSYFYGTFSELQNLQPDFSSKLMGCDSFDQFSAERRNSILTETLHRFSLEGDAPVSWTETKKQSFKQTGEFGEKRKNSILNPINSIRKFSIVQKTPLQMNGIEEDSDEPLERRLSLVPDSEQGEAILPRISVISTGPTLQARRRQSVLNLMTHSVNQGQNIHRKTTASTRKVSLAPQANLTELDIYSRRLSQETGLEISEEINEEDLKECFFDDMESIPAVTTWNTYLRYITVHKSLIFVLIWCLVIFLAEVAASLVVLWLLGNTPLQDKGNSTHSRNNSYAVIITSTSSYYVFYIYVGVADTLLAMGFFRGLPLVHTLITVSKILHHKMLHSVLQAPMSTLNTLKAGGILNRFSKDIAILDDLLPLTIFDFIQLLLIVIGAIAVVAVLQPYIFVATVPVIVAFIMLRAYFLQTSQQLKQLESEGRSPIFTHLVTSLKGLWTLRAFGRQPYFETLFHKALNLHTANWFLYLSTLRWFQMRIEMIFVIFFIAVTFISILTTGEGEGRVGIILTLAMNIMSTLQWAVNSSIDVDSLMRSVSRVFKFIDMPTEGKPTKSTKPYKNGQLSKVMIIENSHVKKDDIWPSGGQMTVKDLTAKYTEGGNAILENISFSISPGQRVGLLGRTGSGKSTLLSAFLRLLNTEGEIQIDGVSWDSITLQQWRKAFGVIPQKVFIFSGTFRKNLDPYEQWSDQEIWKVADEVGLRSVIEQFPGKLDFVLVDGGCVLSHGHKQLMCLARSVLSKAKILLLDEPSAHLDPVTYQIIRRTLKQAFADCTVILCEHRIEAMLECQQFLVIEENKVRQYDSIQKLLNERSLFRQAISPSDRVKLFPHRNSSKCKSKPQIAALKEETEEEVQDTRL

Row | Structure (SMILES) | % Activation | EC50
1 | COc1cc(-n2nc(C3CCC3)c3c(N4CCC(N5CCOCC5)CC4)cc(C(=O)O)nc32)ccn1 [compound 816, 3-cyclobutyl-1-(2-methoxypyridin-4-yl)-4-[4-(morpholin-4-yl)piperidin-1-yl]-1H-pyrazolo[3,4-b]pyridine-6-carboxylic acid] | 359.9% | 67.6 nM
2 | O=C(O)c1cc(OCC2CC(F)(F)C2)c2c(C3CCC3)nn(-c3ccccc3)c2n1 [compound 600, 3-cyclobutyl-4-[(3,3-difluorocyclobutyl)methoxy]-1-phenyl-1H-pyrazolo[3,4-b]pyridine-6-carboxylic acid] | 334.3% | 383 nM
3 | O=C(O)c1cc(N2CCC[C@@H](N3CCCC3=O)C2)c2c(C3CCC3)nn(-c3ccccc3)c2n1 [compound 697, 3-cyclobutyl-4-[(3R)-3-(2-oxopyrrolidin-1-yl)piperidin-1-yl]-1-phenyl-1H-pyrazolo[3,4-b]pyridine-6-carboxylic acid] | 217.3% | 1270 nM
4 | O=C(O)c1cc(N2CCC3(CC2)OCCO3)c2c(C3CCC3)nn(-c3ccccc3)c2n1 [compound 700, 3-cyclobutyl-4-(1,4-dioxa-8-azaspiro[4.5]decan-8-yl)-1-phenyl-1H-pyrazolo[3,4-b]pyridine-6-carboxylic acid] | 290.9% | 128 nM
5 | O=C(O)c1cc(N2CCC(CN3CCCC3)CC2)c2c(C3CCC3)nn(-c3ccc(F)cc3)c2n1 [compound 888, 3-cyclobutyl-1-(4-fluorophenyl)-4-{4-[(pyrrolidin-1-yl)methyl]piperidin-1-yl}-1H-pyrazolo[3,4-b]pyridine-6-carboxylic acid] | 430% | 333 nM
6 | O=C(O)c1cc(N2C[C@@H](O)[C@H](O)C2)c2c(C3CCC3)nn(-c3ccccc3)c2n1 [compound 445, 3-cyclobutyl-4-[(3R,4R)-3,4-dihydroxypyrrolidin-1-yl]-1-phenyl-1H-pyrazolo[3,4-b]pyridine-6-carboxylic acid] | 127.85% | > 10000 nM
7 | O=C(O)c1cc(N2CCN(C(=O)CN3CCOCC3)CC2)c2c(C3CCC3)nn(-c3ccccc3)c2n1 [compound 570, 3-cyclobutyl-4-{4-[(morpholin-4-yl)acetyl]piperazin-1-yl}-1-phenyl-1H-pyrazolo[3,4-b]pyridine-6-carboxylic acid] | 254% | 3330 nM
8 | CC(C)c1nn(-c2ccc(F)cc2)c2nc(C(=O)O)cc(N3CCN(CCCN(C)C)CC3)c12 [compound 760, 4-{4-[3-(dimethylamino)propyl]piperazin-1-yl}-1-(4-fluorophenyl)-3-(propan-2-yl)-1H-pyrazolo[3,4-b]pyridine-6-carboxylic acid] | 131.6% | 5000 nM
9 | CC(C)c1nn(-c2ccc(F)cc2)c2nc(C(=O)O)cc(OCC3(C)COC3)c12 [compound 608, 1-(4-fluorophenyl)-4-[(3-methyloxetan-3-yl)methoxy]-3-(propan-2-yl)-1H-pyrazolo[3,4-b]pyridine-6-carboxylic acid] | 338.1% | 683 nM
10 | CCOCCN1CCN(C2CCN(c3cc(C(=O)O)nc4c3c(C3CCC3)nn4-c3ccccc3)CC2)CC1 [compound 729, 3-cyclobutyl-4-{4-[4-(2-ethoxyethyl)piperazin-1-yl]piperidin-1-yl}-1-phenyl-1H-pyrazolo[3,4-b]pyridine-6-carboxylic acid] | 530.4% | 1670 nM
11 | CCOCC1(F)CCN(c2cc(C(=O)O)nc3c2c(C(C)C)nn3-c2ccc(F)cc2)CC1 [compound 666, 4-[4-(ethoxymethyl)-4-fluoropiperidin-1-yl]-1-(4-fluorophenyl)-3-(propan-2-yl)-1H-pyrazolo[3,4-b]pyridine-6-carboxylic acid] | 338.35% | 253 nM
12 | CC(C)c1nn(-c2ccc(F)cc2)c2nc(C(=O)O)cc(N3CCC(C(=O)N4CCN(C)CC4)CC3)c12 [compound 755, 1-(4-fluorophenyl)-4-[4-(4-methylpiperazine-1-carbonyl)piperidin-1-yl]-3-(propan-2-yl)-1H-pyrazolo[3,4-b]pyridine-6-carboxylic acid] | 270.9% | 1670 nM
13 | O=C(O)c1cc(N2CCC3(C2)OCCO3)c2c(C3CCC3)nn(-c3ccccc3)c2n1 [compound 713, 3-cyclobutyl-4-(1,4-dioxa-7-azaspiro[4.4]nonan-7-yl)-1-phenyl-1H-pyrazolo[3,4-b]pyridine-6-carboxylic acid] | 243.5% | 659 nM
14 | CN(C)CCCN1CCN(c2cc(C(=O)O)nc3c2c(C2CCC2)nn3-c2ccccc2)CC1 [compound 728, 3-cyclobutyl-4-{4-[3-(dimethylamino)propyl]piperazin-1-yl}-1-phenyl-1H-pyrazolo[3,4-b]pyridine-6-carboxylic acid] | 221.6% | 1670 nM
15 | C[C@@H]1CN(c2cc(C(=O)O)nc3c2c(C2CCC2)nn3C2CCCCC2)CCN1Cc1ccccc1 [compound 882, 4-[(3R)-4-benzyl-3-methylpiperazin-1-yl]-3-cyclobutyl-1-cyclohexyl-1H-pyrazolo[3,4-b]pyridine-6-carboxylic acid] | 363.85% | 372 nM
16 | COCCOCC1(F)CCN(c2cc(C(=O)O)nc3c2c(C(C)C)nn3-c2ccc(F)cc2)CC1 [compound 667, 4-{4-fluoro-4-[(2-methoxyethoxy)methyl]piperidin-1-yl}-1-(4-fluorophenyl)-3-(propan-2-yl)-1H-pyrazolo[3,4-b]pyridine-6-carboxylic acid] | 339.85% | 462 nM
17 | CC(C)c1nn(C2CCCCC2)c2nc(C(=O)O)cc(N3CCC(C#N)CC3)c12 [compound 263, 4-(4-cyanopiperidin-1-yl)-1-cyclohexyl-3-(propan-2-yl)-1H-pyrazolo[3,4-b]pyridine-6-carboxylic acid] | 334.25% | 1130 nM
18 | O=C(O)c1cc(N2CCC(CN3CCOCC3)CC2)c2c(C3CCC3)nn(-c3ccc(F)cc3)c2n1 [compound 821, 3-cyclobutyl-1-(4-fluorophenyl)-4-{4-[(morpholin-4-yl)methyl]piperidin-1-yl}-1H-pyrazolo[3,4-b]pyridine-6-carboxylic acid] | 545.15% | 134 nM
19 | CCN(CC)CCCC1CCN(c2cc(C(=O)O)nc3c2c(C(C)C)nn3-c2ccc(F)cc2)CC1 [compound 747, 4-{4-[3-(diethylamino)propyl]piperidin-1-yl}-1-(4-fluorophenyl)-3-(propan-2-yl)-1H-pyrazolo[3,4-b]pyridine-6-carboxylic acid] | 475.3% | 1670 nM
20 | CC(C)c1nn(-c2ccc(F)cc2)c2nc(C(=O)O)cc(N3CCC(CCCN4CCCC4)CC3)c12 [compound 749, 1-(4-fluorophenyl)-3-(propan-2-yl)-4-{4-[3-(pyrrolidin-1-yl)propyl]piperidin-1-yl}-1H-pyrazolo[3,4-b]pyridine-6-carboxylic acid] | 387% | 277 nM
21 | CC(=O)N1CCN(c2cc(C(=O)O)nc3c2c(C2CCC2)nn3-c2ccccc2)CC1 [compound 703, 4-(4-acetylpiperazin-1-yl)-3-cyclobutyl-1-phenyl-1H-pyrazolo[3,4-b]pyridine-6-carboxylic acid] | 374.6% | 386 nM
22 | CC1(c2nn(-c3ccccc3)c3nc(C(=O)O)cc(-c4ccc(N5CCOCC5)cc4)c23)CCC1 [compound 332, 3-(1-methylcyclobutyl)-4-[4-(morpholin-4-yl)phenyl]-1-phenyl-1H-pyrazolo[3,4-b]pyridine-6-carboxylic acid] | 346.12% | 917 nM
23 | CN(C1CCN(c2cc(C(=O)O)nc3c2c(C2CCC2)nn3-c2ccccc2)CC1)C1COC1 [compound 735, 3-cyclobutyl-4-{4-[methyl(oxetan-3-yl)amino]piperidin-1-yl}-1-phenyl-1H-pyrazolo[3,4-b]pyridine-6-carboxylic acid] | 437.7% | 224 nM
